Experimental data as given in patent US20170273922A1, “UREA AND BIS-UREA BASED COMPOUNDS AND ANALOGUES THEREOF USEFUL IN THE TREATMENT OF ANDROGEN RECEPTOR MEDIATED DISEASES OR DISORDERS” (THE ROYAL INSTITUTION FOR THE ADVACEMENT OF LEARNING/MCGILL …, priority 2014, published 2017).

What was measured:
Assay type in all cases: cell-based
[1] = MTT assay (cytotoxicity), LNCaP cells; details: human, LNCaP cells, 72 h
Protocol: (§1) MTT assays: LNCaP, 22Rv1, Du145, H1975, A549, MB231 and MCF-7 cells are maintained in RPMI 1640 supplemented with 10% FBS. Cells were seeded at a density of 6-7×10^3 cells per well in 96-well plates. After overnight incubation, cells in fresh RPMI 1640 supplemented with 10% FBS were exposed to DMSO vehicle control or test compounds at designated concentrations for 72 h. Viable cells were evaluated by MTT assays. Experiments were performed in triplicate and repeated at least twice.

[2] = MTT assay (cytotoxicity), DU145 cells; details: human, DU145 cells
Protocol: as §1

[3] = MTT assay (cytotoxicity), 22Rv1 cells; details: human, 22Rv1 cells, 72 h
Protocol: as §1

LNCaP cells = experiment: MTT assay (cytotoxicity), LNCaP cells; details: 72 h
Protocol: as §1

DU145 cells = experiment: MTT assay (cytotoxicity), DU145 cells; details: 72 h
Protocol: as §1

22Rv1 cells = experiment: MTT assay (cytotoxicity), 22Rv1 cells; details: 72 h
Protocol: as §1

O=C(NCCc1cccc(C(F)(F)F)c1)Nc1ccc([N+](=O)[O-])c(C(F)(F)F)c1 [Compound 448]
IC50 at 72 h ([1]; Table 2.4): 1.8 µM | IC50 at 72 h ([2]; Table 2.4): 7.5 µM | IC50 at 72 h ([3]; Table 2.4): 4.5 µM

O=C(N/C=C/c1cccc(C(F)(F)F)c1)Nc1ccc([N+](=O)[O-])cc1 [Compound 449]
IC50 (LNCaP cells; Table 2.2): 2.1 µM | IC50 (DU145 cells; Table 2.2): 3.9 µM | IC50 (22Rv1 cells; Table 2.2): 5.3 µM

CC(C)(C)OC(=O)n1cc(/C=C/NC(=O)Nc2ccc([N+](=O)[O-])c(C(F)(F)F)c2)c2ccccc21 [Compound 450]
IC50 at 72 h ([1]; Table 2.4): 1.8 µM | IC50 at 72 h ([2]; Table 2.4): 4.9 µM | IC50 at 72 h ([3]; Table 2.4): 4 µM

O=C(N/C=C/c1cccc(C(F)(F)F)c1)Nc1ccccc1NC(=O)N/C=C/c1cccc(C(F)(F)F)c1 [Compound 451]
IC50 at 72 h ([1]; Table 5.1): 2.4 µM | IC50 at 72 h ([2]; Table 5.1): 5.4 µM | IC50 at 72 h ([3]; Table 5.1): 4.4 µM

CC(C)(C)OC(=O)n1cc(/C=C/NC(=O)Nc2ccc(NC(=O)N/C=C/c3cn(C(=O)OC(C)(C)C)c4ccccc34)cc2)c2ccccc21 [Compound 452]
IC50 at 72 h ([1]; Table 5.1): > 20 µM | IC50 at 72 h ([2]; Table 5.1): 3.4 µM | IC50 at 72 h ([3]; Table 5.1): > 20 µM

O=C(N/C=C/c1cccc([N+](=O)[O-])c1)Nc1ccc([N+](=O)[O-])c(C(F)(F)F)c1 [Compound 456]
IC50 (LNCaP cells; Table 2.2): 2 µM | IC50 (DU145 cells; Table 2.2): 5.2 µM | IC50 (22Rv1 cells; Table 2.2): 4.1 µM

O=C(N/C=C/c1cccc(C(F)(F)F)c1)NCCc1cccc(C(F)(F)F)c1 [Compound 459]
IC50 at 72 h ([1]; Table 2.4): 7.1 µM | IC50 at 72 h ([2]; Table 2.4): > 10 µM

Nc1ccc(NC(=O)N/C=C/c2ccc(C(F)(F)F)cc2)cc1 [Compound 462]
IC50 (LNCaP cells; Table 2.2): 3.5 µM | IC50 (DU145 cells; Table 2.2): 3.2 µM | IC50 (22Rv1 cells; Table 2.2): 6.3 µM

N#Cc1ccc(NC(=O)N/C=C/c2cc(C(F)(F)F)cc(C(F)(F)F)c2)cc1C(F)(F)F [Compound 463]
IC50 (LNCaP cells; Table 2.2): 1.2 µM | IC50 (DU145 cells; Table 2.2): 1.2 µM | IC50 (22Rv1 cells; Table 2.2): 1 µM

N#Cc1ccc(NC(=O)N/C=C/c2cc(C(F)(F)F)ccc2C(F)(F)F)cc1C(F)(F)F [Compound 464]
IC50 (LNCaP cells; Table 2.2): 0.4 µM | IC50 (DU145 cells; Table 2.2): 0.4 µM | IC50 (22Rv1 cells; Table 2.2): 0.7 µM

N#Cc1ccc(NC(=O)Nc2ccc([N+](=O)[O-])c(C(F)(F)F)c2)cc1C(F)(F)F [Compound 465]
IC50 (LNCaP cells; LNCaP cells, Table 4.2): 4.1 µM | IC50 (DU145 cells; DU145 cells, Table 4.2): 5.3 µM | IC50 (22Rv1 cells; 22Rv1 cells, Table 4.2): 5.2 µM

N#Cc1ccc(NC(=O)N/C=C/c2cc(C(F)(F)F)ccc2C(F)(F)F)cc1 [Compound 468]
IC50 (LNCaP cells; Table 2.2): 0.9 µM | IC50 (DU145 cells; Table 2.2): 1.5 µM | IC50 (22Rv1 cells; Table 2.2): 1.9 µM

N#Cc1ccc(NC(=O)N/C=C/c2cc(C(F)(F)F)cc(C(F)(F)F)c2)cc1 [Compound 469]
IC50 (LNCaP cells; Table 2.2): 1 µM | IC50 (DU145 cells; Table 2.2): 1.7 µM | IC50 (22Rv1 cells; Table 2.2): 1.9 µM

N#Cc1ccc(NC(=O)N/C=C/c2cc(C(F)(F)F)ccc2C(F)(F)F)cn1 [Compound 480]
IC50 (DU145 cells; Table 2.1): 1.7 µM | IC50 (22Rv1 cells; Table 2.1): 1.8 µM

N#Cc1ccc(NC(=O)N/C=C/c2cc(C(F)(F)F)ccc2C(F)(F)F)nc1 [Compound 481]
IC50 (DU145 cells; Table 2.1): 0.8 µM | IC50 (22Rv1 cells; Table 2.1): 2.6 µM

N#Cc1ccc(NC(=O)N/C=C/c2cc(C(F)(F)F)cc(C(F)(F)F)c2)nc1 [Compound 483]
IC50 (DU145 cells; Table 2.1): 2 µM | IC50 (22Rv1 cells; Table 2.1): 2.3 µM

N#Cc1ccc(NC(=O)Nc2cc(C(F)(F)F)cc(C(F)(F)F)c2)cc1C(F)(F)F [Compound 494]
IC50 (LNCaP cells; LNCaP cells, Table 4.2): 0.3 µM | IC50 (DU145 cells; DU145 cells, Table 4.2): 1.5 µM | IC50 (22Rv1 cells; 22Rv1 cells, Table 4.2): 1.6 µM

N#Cc1ccc(NC(=O)Nc2cc(C(F)(F)F)cc(C(F)(F)F)c2)cc1Cl [Compound 500]
IC50 (LNCaP cells; LNCaP cells, Table 4.2): 0.2 µM | IC50 (DU145 cells; DU145 cells, Table 4.2): 1.3 µM | IC50 (22Rv1 cells; 22Rv1 cells, Table 4.2): 0.4 µM

N#Cc1ccc(NC(=O)Nc2ccc(C(F)(F)F)cc2)cc1Cl [Compound 502]
IC50 (LNCaP cells; LNCaP cells, Table 4.2): 1.2 µM | IC50 (DU145 cells; DU145 cells, Table 4.2): 4.1 µM | IC50 (22Rv1 cells; 22Rv1 cells, Table 4.2): 2.2 µM

O=C(N/C=C/c1cc(C(F)(F)F)cc(C(F)(F)F)c1)Nc1cccnc1 [Compound 503]
IC50 (LNCaP cells; Table 2.1): 7.5 µM | IC50 (DU145 cells; Table 2.1): 9.5 µM | IC50 (22Rv1 cells; Table 2.1): 11.3 µM

N#Cc1ccc(NC(=O)Nc2ccc(C(F)(F)F)cc2)cc1C(F)(F)F [Compound 509]
IC50 (LNCaP cells; LNCaP cells, Table 4.2): 0.7 µM | IC50 (DU145 cells; DU145 cells, Table 4.2): 5.4 µM | IC50 (22Rv1 cells; 22Rv1 cells, Table 4.2): 1.6 µM

N#Cc1ccc(NC(=O)N/C=C/c2cccc(C(F)(F)F)c2)cn1 [Compound 510]
IC50 (LNCaP cells; Table 2.1): 3.3 µM | IC50 (DU145 cells; Table 2.1): 5.7 µM | IC50 (22Rv1 cells; Table 2.1): 6.6 µM

O=C(N/C=C/c1cc(C(F)(F)F)cc(C(F)(F)F)c1)Nc1ncccc1Br [Compound 527]
IC50 (LNCaP cells; Table 2.1): 5.3 µM | IC50 (DU145 cells; Table 2.1): 6.8 µM | IC50 (22Rv1 cells; Table 2.1): 7.6 µM

O=C(N/C=C/c1cc(C(F)(F)F)cc(C(F)(F)F)c1)Nc1ncccn1 [Compound 531]
IC50 (LNCaP cells; Table 2.1): < 1 µM | IC50 (DU145 cells; Table 2.1): < 1 µM

O=C(N/C=C/c1cc(C(F)(F)F)cc(C(F)(F)F)c1)Nc1cnccc1Cl [Compound 533]
IC50 (LNCaP cells; Table 2.1): 2 µM | IC50 (DU145 cells; Table 2.1): 6.5 µM | IC50 (22Rv1 cells; Table 2.1): 10.9 µM

O=C(N/C=C/c1cc(C(F)(F)F)cc(C(F)(F)F)c1)Nc1cncc(F)c1 [Compound 535]
IC50 (LNCaP cells; Table 2.1): 2.6 µM | IC50 (DU145 cells; Table 2.1): 3 µM | IC50 (22Rv1 cells; Table 2.1): 3.1 µM

O=C(N/C=C/c1cc(C(F)(F)F)cc(C(F)(F)F)c1)Nc1nccc(C(F)(F)F)n1 [Compound 538]
IC50 (LNCaP cells; Table 2.1): < 1 µM | IC50 (DU145 cells; Table 2.1): 1.2 µM
